Consider eight compounds from PubChem BioAssay (NCI).

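Dose response: 5 concentrations. Exposure: 48 h. Format: 96-well plates. Endpoint: linear interpolation; highest concentration if not reached. GI50 = concentration required for 50% inhibition of growth. TGI: concentration producing complete growth inhibition.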

Test systems include HCT-15 colon; HOP-92 NSCLC; IGROV1 ovarian; KM12 colon; NCI-H522 lung; OVCAR-5 ovarian; SK-MEL-2 melanoma; SN12C renal; SNB-75 CNS; UO-31 renal.
Common to all, as to experiment: NCI anticancer screen, dose series, 48 h

With `O=C1/C=C/[C@@H](O)[C@@H]2C[C@@H](O)C[C@H]2/C=C/CCC[C@H](CCc2ccc(NC(=S)Nc3ccc4c(c3)C(=O)OC43c4ccc(O)cc4Oc4cc(O)ccc43)cc2)O1`, the GI50 in the experiment on HCT-15 colon was 0.889 µM; with HOP-92 NSCLC it was 0.932 µM; in the experiment with IGROV1 ovarian, 0.622 µM; with KM12 colon, 0.322 µM; in the experiment on NCI-H522 lung, 1.6 µM; in the experiment with OVCAR-5 ovarian, 0.698 µM. Also, the GI50 is 0.456 µM with SK-MEL-2 melanoma, 2.17 µM in the experiment on SN12C renal, 0.252 µM in the experiment on SNB-75 CNS and 0.335 µM with UO-31 renal. Further, the TGI in the experiment with HCT-15 colon was > 100 µM; in the experiment on HOP-92 NSCLC, > 27.6 µM; in the experiment with IGROV1 ovarian, 2.69 µM; with KM12 colon it was 0.971 µM; in the experiment with NCI-H522 lung it was 5.24 µM; with OVCAR-5 ovarian, > 100 µM. For the same compound, the TGI in the experiment with SK-MEL-2 melanoma was 5.22 µM; in the experiment on SN12C renal it was > 100 µM; in the experiment on SNB-75 CNS, > 100 µM; in the experiment on UO-31 renal, > 100 µM.
On to `CC[C@H](C)C(=O)O[C@H]1CCC=C2C=C[C@H](C)[C@H](CC[C@@H]3C[C@@H](O)CC(=O)O3)[C@H]21`, for which the GI50 is 2.52 µM with HCT-15 colon; 0.135 µM in the experiment on HOP-92 NSCLC; 5 µM in the experiment on IGROV1 ovarian; 2.41 µM in the experiment on NCI-H522 lung; 14.4 µM in the experiment on OVCAR-5 ovarian; 1.77 µM in the experiment on SK-MEL-2 melanoma. Further, the GI50 is 3.88 µM in the experiment on SN12C renal, 1.37 µM in the experiment with SNB-75 CNS and 5.29 µM in the experiment with UO-31 renal. Besides, the TGI in the experiment with HCT-15 colon was > 100 µM; in the experiment on HOP-92 NSCLC, 0.706 µM; with IGROV1 ovarian, > 100 µM; with KM12 colon, > 100 µM; in the experiment with NCI-H522 lung it was 39.6 µM; with OVCAR-5 ovarian, > 100 µM. Also, the TGI in the experiment with SK-MEL-2 melanoma was 11.7 µM; with SN12C renal it was > 100 µM; in the experiment on SNB-75 CNS, 4.68 µM; in the experiment on UO-31 renal it was > 100 µM.
Turning to `CCc1c2c(nc3ccc(OC(=O)OCc4ccc(B5OC(C)(C)C(C)(C)O5)cc4)cc13)-c1cc3c(c(=O)n1C2)COC(=O)[C@]3(O)CC`, the GI50 in the experiment on HCT-15 colon was 0.127 µM; with HOP-92 NSCLC, 0.0269 µM; in the experiment on IGROV1 ovarian, 0.1 µM; with KM12 colon it was 0.073 µM; in the experiment with NCI-H522 lung it was 0.0196 µM; in the experiment with OVCAR-5 ovarian, 0.114 µM. The GI50 was 0.326 µM in the experiment on SK-MEL-2 melanoma, < 0.01 µM with SN12C renal, < 0.0117 µM with SNB-75 CNS and 0.0189 µM in the experiment with UO-31 renal. Further, the TGI in the experiment on HCT-15 colon is > 100 µM; in the experiment with HOP-92 NSCLC, 14.4 µM; with IGROV1 ovarian, 3.48 µM; in the experiment with KM12 colon it was 16.1 µM; with NCI-H522 lung, 14.2 µM; in the experiment with OVCAR-5 ovarian, 6.23 µM. Further, the TGI was 8.57 µM in the experiment on SK-MEL-2 melanoma, > 54.7 µM in the experiment on SN12C renal, 0.184 µM in the experiment on SNB-75 CNS and 0.339 µM in the experiment on UO-31 renal.
Regarding `COc1ccc2c(c1)C(=O)/C(=C/c1cccc(OCC(=O)c3ccc([N+](=O)[O-])cc3)c1)CO2`, the GI50 in the experiment with HCT-15 colon was 2.17 µM; with HOP-92 NSCLC it was 3.16 µM; in the experiment on IGROV1 ovarian, 1.48 µM; in the experiment with KM12 colon it was 1.56 µM; with NCI-H522 lung, 3.5 µM; in the experiment on OVCAR-5 ovarian, 2.34 µM. Besides, the GI50 was 1.64 µM in the experiment on SK-MEL-2 melanoma, 2.92 µM in the experiment with SN12C renal, 1.83 µM in the experiment on SNB-75 CNS and 1.47 µM in the experiment with UO-31 renal. Besides, the TGI in the experiment on HCT-15 colon amounted to 6.92 µM; in the experiment on HOP-92 NSCLC, 15.8 µM; in the experiment on IGROV1 ovarian, 3.86 µM; in the experiment with KM12 colon, 3.26 µM; in the experiment on NCI-H522 lung, 9.41 µM; in the experiment with OVCAR-5 ovarian it was 5.08 µM. Moreover, the TGI came out at 4.2 µM with SK-MEL-2 melanoma, 11.4 µM in the experiment with SN12C renal, 8.09 µM with SNB-75 CNS and 4.02 µM in the experiment on UO-31 renal.
As for `O=c1oc2ccc(I)cc2c(=O)n1-c1ccc(I)cc1F`, the GI50 with HCT-15 colon was 0.704 µM; with HOP-92 NSCLC, 0.169 µM; in the experiment on IGROV1 ovarian it was 0.406 µM; in the experiment on KM12 colon, 2.2 µM; in the experiment with NCI-H522 lung, 0.327 µM; in the experiment on OVCAR-5 ovarian it was 3.93 µM. Moreover, the GI50 in the experiment with SK-MEL-2 melanoma was 0.391 µM; with SN12C renal it was 0.404 µM; in the experiment on SNB-75 CNS, 0.32 µM; with UO-31 renal, 0.268 µM. The TGI in the experiment on HCT-15 colon is 10.5 µM; in the experiment on HOP-92 NSCLC, 0.544 µM; in the experiment with IGROV1 ovarian, 20.8 µM; with KM12 colon it was 5.23 µM; in the experiment with NCI-H522 lung, 4.52 µM; with OVCAR-5 ovarian, > 100 µM. Moreover, the TGI was determined as 2.55 µM with SK-MEL-2 melanoma, 6.49 µM in the experiment with SN12C renal, 2.57 µM in the experiment on SNB-75 CNS and 2.41 µM in the experiment with UO-31 renal.
Regarding `C=C1C(=O)O[C@H]2[C@H]1CC/C(CNC(=O)C(C)c1ccc(CC(C)C)cc1)=C\CC[C@@]1(C)O[C@@H]21` (some centres undefined), the GI50 was 1.47 µM in the experiment on HCT-15 colon; 1.5 µM with HOP-92 NSCLC; 1.59 µM with IGROV1 ovarian; 2.38 µM in the experiment on KM12 colon; 1.63 µM with NCI-H522 lung; 1.92 µM in the experiment on OVCAR-5 ovarian. Also, the GI50 with SK-MEL-2 melanoma was 1.6 µM; in the experiment with SN12C renal, 1.63 µM; with SNB-75 CNS it was 1.34 µM; in the experiment with UO-31 renal, 1.33 µM. The TGI in the experiment with HCT-15 colon amounted to 3.25 µM; in the experiment on HOP-92 NSCLC it was 2.92 µM; in the experiment with IGROV1 ovarian it was 3.43 µM; with KM12 colon, 5.65 µM; with NCI-H522 lung it was 3.5 µM; in the experiment on OVCAR-5 ovarian, 4.04 µM. Also, the TGI in the experiment on SK-MEL-2 melanoma is 3.18 µM; with SN12C renal, 3.26 µM; with SNB-75 CNS, 2.63 µM; in the experiment with UO-31 renal, 2.6 µM.
Take `CCc1nc(N)nc(N)c1-c1ccc(N(C)Cc2ccccc2)c([N+](=O)[O-])c1`: the TGI with HCT-15 colon was found to be 9.86 µM; in the experiment on HOP-92 NSCLC, 18.7 µM; in the experiment on IGROV1 ovarian, 25.8 µM; in the experiment with KM12 colon, 16.3 µM; with NCI-H522 lung, 14.6 µM; in the experiment on OVCAR-5 ovarian it was 32.9 µM. Further, the TGI with SK-MEL-2 melanoma is 20 µM; in the experiment on SN12C renal, 41.7 µM; in the experiment with SNB-75 CNS, 19.5 µM; with UO-31 renal it was 16 µM.
On to `O=[N+]([O-])c1cc(C(F)(F)F)cc2n[se]nc12`, for which the TGI came out at 5.59 µM in the experiment on HCT-15 colon; 5.1 µM in the experiment with HOP-92 NSCLC; 14.6 µM with IGROV1 ovarian; 20.3 µM with KM12 colon; 6.54 µM with NCI-H522 lung; 26.4 µM with OVCAR-5 ovarian. For the same compound, the TGI with SK-MEL-2 melanoma stood at 22.7 µM; in the experiment with SN12C renal, 10.6 µM; in the experiment with SNB-75 CNS, 19.8 µM; with UO-31 renal, 14.1 µM.
